Reference: US20060106028A1, “Polycyclic aromatics and derivatives thereof and processes for their preparation” (priority 2004, published 2006)
Values after ≈ are worked out from the molar mass of the structure shown.

Assays:
[1] = tested on: Streptococcus pneumoniae (LSPQ 3412); assay: Antibacterial activity, MIC (NCCLS M7-A5); format: cell-based; conditions: MH medium +2% lysed horse blood
[2] = tested on: Staphylococcus aureus (Smith strain, ATCC™ 13709); assay: In vivo antimicrobial efficacy in infected ICR mice; conditions: ip, ICR mice infected i.p., compound i.p. one hour post infection in 1% SDS, mortality recorded for 7 days, read-out: median effective dose (ED50)
Experimental: In vivo efficacy studies were performed on ICR mice (supplied by Charles River Laboratories, Wilmington, Mass.) having a bodyweight of 20±2 g. Mice (38) were inoculated i.p. with an LD90-100 dose (1×10^6 CFU/mouse) of Staphylococcus aureus (Smith strain, ATCC™ 13709) suspended in 0.5 mL of BHI containing 5% mucin. Compound 1 at doses 0.1, 0.5, 1 and 5 mg/kg (formulated in 1% SDS for a total volume of 5 μL/g of weight) was administered i.p. one hour post infection (5 mice for each concentration). Another group of 5 mice was treated i.v. with a 10 mg/kg dose of Vancomycin. Finally, a group of 3 mice was administered vehicle only. Mortality was recorded for 7 days.

[3] = In vivo toxicity: single-dose maximum tolerated dose in CD1 mice; conditions: mouse, other: i.v. or i.p. (intravenous or intraperitoneal), single-dose via i.v. or i.p. routes, 1% SDS formulation
Experimental: Toxicity and therapeutic efficacy of polycyclic aromatic compounds can be determined by standard pharmaceutical procedures in cell cultures or experimental animals. Therapeutic efficacy is determined in animal models as described above and in the examples herein. Toxicity studies are done to determine the lethal dose for 10% of tested animals (LD10). Animals are treated at the maximum tolerated dose (MTD): the highest dose not producing mortality or greater than 20% body weight loss. The effective dose (ED) is related to the MTD in a given tumor model to determine the therapeutic index of the compound.
In vivo toxicity: With CD1 mice, the maximum tolerated dose (MTD) for a single-dose via i.v. or i.p. routes in 1% SDS formulation was ≧5 mg/kg. The acute toxicity in CD-1 nu/nlu mice of Compound 1 was also determined in 6% Tween/4.5% Glycocholate/5% EtOH formulation.

[4] = In vivo pharmacokinetic profile (plasma levels); parameters: species or system CD-1 mice; conditions: CD-1, mouse, 25 mg/kg single dose, CD1 female mice
Experimental: Pharmacokinetic profile of Compound 1 was determined in CD-1 mice (FIG. 1). CD1 female mice (6 weeks of age) received a single intravenous or intraperitoneal dose of Compound 1 (25 mg/kg; 5 mL/kg) in […]/4.5% Glycocholate/5% EtOH formulation. Blood was collected into EDTA-containing tubes by cardiac puncture. Quantification of Compound 1 plasma levels was done by high performance liquid chromatographic-mass spectrometric method. Cmax values represent the maximum observed plasma concentration and AUC represents the area under the plasma concentration versus time curve (Table 6).

[5] = tested on: HT-29 (colorectal carcinoma); assay: In vitro tumor growth inhibition (GI50, propidium iodide); format: cell-based; conditions: Homo sapiens, 96 hrs
[6] = tested on: Escherichia coli (ATCC™ 25922); assay: Antibacterial activity (NCCLS M7-A5); format: cell-based; conditions: MH medium
[7] = tested on: Saccharomyces cerevisiae FHCRC-50014; assay: Antifungal activity, MIC (NCCLS M27-A); format: cell-based; conditions: FHCRC50014, after 24 hours, YPD medium
Experimental: (§1) Testing of antifungal activity was performed according to NCCLS method (NCCLS. Reference Method for Broth Dilution Antifungal Susceptibility Testing of Yeasts; Approved Standard. NCCLS document M27-A (ISBN 1-56238-328-0). NCCLS, 940 West Valley Road, Suite 1400, Wayne, Pa. 19087-1898 USA; www.nccls.org.). Compound 1 was prepared as 100× stock solutions in DMSO, with concentrations ranging from 3.2 mg/mL to 0.003 mg/mL (a two-fold dilution series over 11 points). An aliquot of each 100× stock solution was diluted 50-fold in test medium described below to give a set of eleven (11) 2× solutions. 50 μL of each of the eleven 2× solutions was aliquoted into the corresponding well of a 12-well row, with the final well reserved for medium alone control. Inoculum density for each indicator strain was adjusted to OD600=0.1 in 5 mL 0.85% saline, then further diluted 1/1000 in YPD medium. 50 μL of the final dilution (in test medium) of each indicator strain was added to each well of a 12-well row. This brings the final dilution of the test article or control compound in solution to 1×. The final inoculum was approximately 5×10^4 CFU/ml.
(§2) Bacterial strains Streptococcus pneumoniae LSPQ 3412 and LSPQ 3349 were obtained from the “Laboratoire de Sante Publique du Quebec”. Saccharomyces cerevisiae FHCRC-50014 and FHCRC-50514 were obtained from the “Fred Hutchison Cancer Research Center”.

[8] = tested on: Saccharomyces cerevisiae FHCRC-50514; assay: Antifungal activity, MIC (NCCLS M27-A); format: cell-based; conditions: FHCRC50514, after 24 hours, YPD medium
Experimental: as §1, §2

Compound CCC(C)c1cc2c(=O)c3ccc4c(OC)c5c(=O)c6c(O)ccc(O)c6c(=O)c5c(O)c4c3c(=O)c2c(=O)n1CC(=O)N1CC(C(=O)O)NC(=O)C1C (centres unmarked) [Compound 1] has an MIC [1] of 0.5 to 1 µg/mL (≈ 0.678 to 1.36 µM), an ED50 [2] of under 0.1 mg/kg and an MTD [3] of at least 5 mg/kg. The AUC ([4]; ip) was 649 µg·h/mL, the Cmax ([4]; ip) was 111 µg/mL and the AUC ([4]; iv) was 1180 µg·h/mL. For the same compound, the Cmax ([4]; iv) was 227 µg/mL, the GI50 [5] was 8.85 µM and the Antibacterial activity [6] was “inactive”. The MIC [7] was 8 µg/mL (≈ 10.8 µM) and the MIC [8] was 8 µg/mL (≈ 10.8 µM).
